The target in data set [1] is Serine/threonine-protein kinase ATR (Homo sapiens, UniProt Q13535). The experiment in a line: Inhibition of ATR (unknown origin) using peptide as substrate preincubated for 10 mins followed by substrate addition by microplate reader analysis.
Data set [2] concerns LoVo. The experiment in a line: Antiproliferative activity against ATM-deficient human LoVo cells assessed as reduction in cell proliferation at 0.2 uM incubated for 3 days by MTT assay. In kind it is functional. The arrangement: scale not given: the % may be the effect or the level left. As to conditions: time 3 day.
Data set [3] has as its system LoVo. The data set can be described thus: Antiproliferative activity against ATM-deficient human LoVo cells assessed as reduction in cell proliferation incubated for 3 days by MTT assay. In kind it is functional, cell-based. As to conditions: 72 h. A general note: Formazan colour is commonly taken as a measure of viable cells.
The subject of data set [4] is HT-29. The experiment in a line: Antiproliferative activity against ATM-proficient human HT-29 cells assessed as reduction in cell proliferation incubated for 3 days by MTT assay. The class given is functional, cell-based. The note with it: HT-29, 72 h.
The nature of data set [5]: in vitro. As to conditions: rat, liver microsomes.
Data set [6] can be described thus: in vitro. As to conditions: rat, liver microsomes. The source holds these as a separate data set. Background: Microsomes from liver hold many membrane-bound enzymes, among them those of drug oxidation.
Data set [7] in a line: in vitro. The note with it: rat, liver microsomes. This is another data set of the same source.
Data set [8] is described as follows: in vitro. The note with it: human, liver microsomes.
Data set [9] is described as follows: in vitro. As to conditions: human, liver microsomes. This is another data set of the same source.
Data set [10] is described as follows: in vitro. As to conditions: human, liver microsomes. This is another data set of the same source.

This note sets out measurements from ChEMBL document CHEMBL5331073, “Discovery of novel 7,7-dimethyl-6,7-dihydro-5H-pyrrolo[3,4-d]pyrimidines as ATR inhibitors based on structure-based drug design” (Eur J Med Chem, 2023).

What is called IC50 is the point on the concentration scale where inhibition reaches its midpoint. A word on the CLint scaled: it is a measure of how fast metabolising enzymes remove a compound, apart from limits set by blood flow. As a reminder, the microsomal CLint is a measure of how fast metabolising enzymes remove a compound, apart from limits set by blood flow. The half-life is the time in which the quantity being followed falls by half.

Sequence of Serine/threonine-protein kinase ATR (Q13535 whole entry): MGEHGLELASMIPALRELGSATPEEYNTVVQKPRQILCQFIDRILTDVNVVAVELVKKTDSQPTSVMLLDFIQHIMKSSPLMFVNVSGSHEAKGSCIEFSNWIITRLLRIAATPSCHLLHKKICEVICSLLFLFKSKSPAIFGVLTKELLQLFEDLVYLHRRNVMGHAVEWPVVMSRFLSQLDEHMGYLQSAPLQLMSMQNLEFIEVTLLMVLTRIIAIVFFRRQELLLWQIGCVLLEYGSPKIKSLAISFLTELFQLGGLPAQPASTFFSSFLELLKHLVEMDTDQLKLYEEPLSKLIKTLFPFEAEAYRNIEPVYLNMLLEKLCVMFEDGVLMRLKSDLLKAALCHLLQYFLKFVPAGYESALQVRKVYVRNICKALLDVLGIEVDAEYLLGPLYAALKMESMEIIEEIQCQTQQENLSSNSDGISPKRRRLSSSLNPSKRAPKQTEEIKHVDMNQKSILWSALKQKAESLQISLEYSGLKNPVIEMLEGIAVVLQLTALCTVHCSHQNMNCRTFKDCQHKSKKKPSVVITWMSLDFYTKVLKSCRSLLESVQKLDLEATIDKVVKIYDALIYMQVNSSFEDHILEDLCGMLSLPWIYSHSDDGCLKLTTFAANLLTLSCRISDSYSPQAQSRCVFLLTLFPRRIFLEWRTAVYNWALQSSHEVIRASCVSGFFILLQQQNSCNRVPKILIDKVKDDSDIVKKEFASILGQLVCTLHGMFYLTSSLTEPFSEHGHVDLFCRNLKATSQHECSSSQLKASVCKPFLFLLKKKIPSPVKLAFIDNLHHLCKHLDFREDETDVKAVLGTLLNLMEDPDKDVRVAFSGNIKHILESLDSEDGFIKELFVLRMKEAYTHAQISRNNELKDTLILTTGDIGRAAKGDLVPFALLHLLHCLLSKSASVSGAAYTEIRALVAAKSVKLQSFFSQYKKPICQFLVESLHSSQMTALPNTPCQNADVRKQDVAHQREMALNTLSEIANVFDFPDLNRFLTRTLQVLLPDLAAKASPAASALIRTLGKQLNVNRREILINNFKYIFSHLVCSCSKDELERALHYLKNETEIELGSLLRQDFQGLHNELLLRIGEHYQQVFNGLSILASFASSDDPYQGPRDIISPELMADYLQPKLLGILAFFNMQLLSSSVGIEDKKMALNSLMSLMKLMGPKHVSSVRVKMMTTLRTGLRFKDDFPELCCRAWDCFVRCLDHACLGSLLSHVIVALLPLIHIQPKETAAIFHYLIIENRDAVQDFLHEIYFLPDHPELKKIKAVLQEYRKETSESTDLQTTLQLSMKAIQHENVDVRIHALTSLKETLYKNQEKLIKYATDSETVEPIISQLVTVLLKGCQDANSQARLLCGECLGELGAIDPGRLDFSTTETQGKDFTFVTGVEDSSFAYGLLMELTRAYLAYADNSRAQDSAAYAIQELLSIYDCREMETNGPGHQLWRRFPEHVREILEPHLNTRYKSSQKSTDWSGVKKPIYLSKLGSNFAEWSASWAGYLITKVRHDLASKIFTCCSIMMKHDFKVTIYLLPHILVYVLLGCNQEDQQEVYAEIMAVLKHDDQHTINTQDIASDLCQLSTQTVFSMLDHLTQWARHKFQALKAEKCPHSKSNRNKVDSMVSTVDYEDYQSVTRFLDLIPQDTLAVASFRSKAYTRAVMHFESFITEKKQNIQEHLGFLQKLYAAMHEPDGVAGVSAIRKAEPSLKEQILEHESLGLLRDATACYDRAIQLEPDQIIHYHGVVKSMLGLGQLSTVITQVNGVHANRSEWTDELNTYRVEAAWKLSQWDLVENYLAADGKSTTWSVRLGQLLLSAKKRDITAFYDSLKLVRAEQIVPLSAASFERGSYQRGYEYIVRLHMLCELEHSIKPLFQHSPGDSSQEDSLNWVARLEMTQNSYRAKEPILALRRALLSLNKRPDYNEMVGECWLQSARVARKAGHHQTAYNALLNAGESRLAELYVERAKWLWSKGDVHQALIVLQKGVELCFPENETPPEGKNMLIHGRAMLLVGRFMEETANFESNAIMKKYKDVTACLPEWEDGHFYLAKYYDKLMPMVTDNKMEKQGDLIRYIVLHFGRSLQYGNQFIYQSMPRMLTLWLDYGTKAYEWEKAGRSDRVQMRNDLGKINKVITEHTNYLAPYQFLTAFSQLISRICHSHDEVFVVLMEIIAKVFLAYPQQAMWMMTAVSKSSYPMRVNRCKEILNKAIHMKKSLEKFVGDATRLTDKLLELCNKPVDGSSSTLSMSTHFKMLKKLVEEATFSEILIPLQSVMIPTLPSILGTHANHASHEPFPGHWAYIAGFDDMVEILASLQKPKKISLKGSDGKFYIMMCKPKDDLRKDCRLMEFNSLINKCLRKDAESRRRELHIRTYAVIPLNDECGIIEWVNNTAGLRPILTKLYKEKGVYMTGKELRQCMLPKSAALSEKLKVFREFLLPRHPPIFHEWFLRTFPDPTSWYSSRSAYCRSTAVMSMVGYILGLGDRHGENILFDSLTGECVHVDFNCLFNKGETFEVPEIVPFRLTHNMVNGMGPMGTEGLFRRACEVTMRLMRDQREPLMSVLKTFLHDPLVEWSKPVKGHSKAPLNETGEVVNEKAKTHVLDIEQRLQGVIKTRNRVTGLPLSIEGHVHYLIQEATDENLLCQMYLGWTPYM

For the compound `Cc1cccc(C(=O)N2CCc3c(N4CCOC[C@H]4C)nc(-c4cccc5[nH]ccc45)nc3C2(C)C)c1`, the midpoint of inhibition in data set [1], the IC50, lay at 17 nM.
On the same count and under the same terms, the figure for `COc1ccc(C(=O)N2CCc3c(N4CCOC[C@H]4C)nc(-c4cccc5[nH]ccc45)nc3C2(C)C)cc1` is 9 nM.
Same read-out and setting: the figure for `C[C@@H]1COCCN1c1nc(-c2cccc3[nH]ccc23)nc2c1CCN(C(=O)C(C)(C)C)C2(C)C` is 17 nM; for `C[C@@H]1COCCN1c1nc(-c2cccc3[nH]ccc23)nc2c1CCN(C(=O)C1CC1)C2(C)C` it is 8 nM.
Compound `CC(=O)N1CCc2c(nc(-c3cccc4[nH]ccc34)nc2N2CCOC[C@H]2C)C1` gave a half-maximal inhibitory concentration (IC50) in data set [1] of 29 nM.
In [1], `C[C@@H]1COCCN1c1nc(-c2cccc3[nH]ccc23)nc2c1CCN(C(=O)Cc1ccccc1)C2(C)C` registered a half-inhibitory concentration (IC50) of 22 nM.
Consider `CC(C)C(=O)N1CCc2nc(-c3cccc4[nH]ccc34)nc(N3CCOC[C@H]3C)c2C1`, for which the 50% inhibitory concentration (IC50) in data set [1] was above 100 nM.
In the case of `C[C@@H]1COCCN1c1nc(-c2cccc3[nH]ccc23)nc2c1CN(C(=O)C1CCC1)C2(C)C`, in data set [2], the Activity was below 45%. The compound also registered a 50% inhibitory concentration (IC50) in data set [1] of 7 nM.
In the case of `CC(C)C(=O)N1CCc2c(N3CCOC[C@H]3C)nc(-c3cccc4[nH]ccc34)nc2C12CCC2`, 29 nM corresponded to half-maximal inhibition in [1] (IC50).
As to `CC(C)C(=O)N1Cc2c(N3CCOC[C@H]3C)nc(-c3cccc4[nH]ccc34)nc2C1(C)C`, in [2], the Activity is listed as below 45%. The same compound registered an IC50 in data set [1] of 8 nM.
In turn, `COc1cccc(C(=O)N2CCc3c(nc(-c4cccc5[nH]ccc45)nc3N3CCOC[C@H]3C)C2)c1` had an IC50 in data set [1] of 76 nM.
In [1], `CC(C)C(=O)N1CCc2c(nc(-c3cccc4[nH]ccc34)nc2N2CCOC[C@H]2C)C1` registered an IC50 of 15 nM.
In turn, `CCC(=O)N1CCc2nc(-c3cccc4[nH]ccc34)nc(N3CCOC[C@H]3C)c2C1` returned an IC50 in [1] above 1100 nM.
Regarding `C[C@@H]1COCCN1c1nc(-c2cccc3[nH]ccc23)nc2c1CN(C(=O)c1ccc(OC(F)F)cc1)C2(C)C`, the Activity in data set [2] was below 45%. The same compound came in with an IC50 in [1] of 5 nM.
As to `COc1ccc(C(=O)N2CCc3c(N4CCOC[C@H]4C)nc(-c4cccc5[nH]ccc45)nc3C23CCC3)cc1`, in [1], the concentration for half-maximal inhibition (IC50) was above 100 nM.
With `COc1cccc(C(=O)N2CCc3c(N4CCOC[C@H]4C)nc(-c4cccc5[nH]ccc45)nc3C2(C)C)c1`, the IC50 in [1] came out at 5 nM.
Regarding `C[C@@H]1COCCN1c1nc(-c2cccc3[nH]ccc23)nc2c1CN(C(=O)c1ccc3c(c1)OCCO3)C2(C)C`, the results for the half-inhibitory concentration (IC50) in [3], in data set [4] and in data set [1] were 147 nM, 487 nM and 4 nM, respectively.
Compound `CC(=O)N1CCc2c(N3CCOC[C@H]3C)nc(-c3cccc4[nH]ccc34)nc2C12CCC2` showed a concentration for half-maximal inhibition (IC50) in [1] of 35 nM.
The same measure, in the same setting: the value for `C[C@@H]1COCCN1c1nc(-c2cccc3[nH]ccc23)nc2c1CCN(C(=O)C1CCC1)C2(C)C` was 17 nM; that for `CCC(=O)N1CCc2c(N3CCOC[C@H]3C)nc(-c3cccc4[nH]ccc34)nc2C12CCC2` was 23 nM; that for `C[C@@H]1COCCN1c1nc(-c2cccc3[nH]ccc23)nc2c1CCN(C(=O)c1ccc(F)cc1)C2(C)C` was 18 nM.
The same measure, in the same setting: the value for `CCC(=O)N1CCc2c(nc(-c3cccc4[nH]ccc34)nc2N2CCOC[C@H]2C)C1` was 38 nM; that for `COc1ccc(C(=O)N2CCc3nc(-c4cccc5[nH]ccc45)nc(N4CCOC[C@H]4C)c3C2)cc1` was above 1100 nM.
In data set [1], `CC(=O)N1CCc2nc(-c3cccc4[nH]ccc34)nc(N3CCOC[C@H]3C)c2C1` registered an IC50 above 100 nM.
`CCC(=O)N1Cc2c(N3CCOC[C@H]3C)nc(-c3cccc4[nH]ccc34)nc2C1(C)C`: the Activity in data set [2] is listed as below 45%. In [1], the midpoint of inhibition, the IC50, lay at 2 nM.
With `C=CC(=O)N1CCc2c(N3CCOC[C@H]3C)nc(-c3cccc4[nH]ccc34)nc2C1(C)C`, in data set [1], 6 nM corresponded to half-maximal inhibition (IC50).
With `C[C@@H]1COCCN1c1nc(-c2cccc3[nH]ccc23)nc2c1CN(C(=O)C(C)(C)C)C2(C)C`, in [2], the Activity is below 45%. Besides, it took 12 nM to reach half-maximal inhibition in data set [1] (IC50).
As for `C[C@@H]1COCCN1c1nc(-c2cccc3[nH]ccc23)nc2c1CN(C(=O)C1CC1)C2(C)C`, the Activity in data set [2] is given as below 45%. In [1], this compound yielded an IC50 of 8 nM.
In the case of `C[C@@H]1COCCN1c1nc(-c2cccc3[nH]ccc23)nc2c1CCN(C(=O)CN(C)C)C2(C)C`, in data set [1], the IC50 stood at 32 nM.
Take `C[C@@H]1COCCN1c1nc(-c2cccc3[nH]ccc23)nc2c1CCN(C(=O)C1CC1)C21CCC1`: in data set [1], the IC50 worked out at 28 nM.
Regarding `C[C@@H]1COCCN1c1nc(-c2cccc3[nH]ccc23)nc2c1CCN(C(=O)CN1CCN(C)CC1)C2(C)C`, in [1], the half-maximal inhibitory concentration (IC50) worked out at 52 nM.
Same read-out and setting: the value for `COc1ccc(C(=O)N2Cc3c(N4CCOC[C@H]4C)nc(-c4cccc5[nH]ccc45)nc3C2(C)C)cc1OC` was 7 nM; that for `C[C@@H]1COCCN1c1nc(-c2cccc3[nH]ccc23)nc2c1CCN(C(=O)c1ccc(C(F)(F)F)cc1)C2(C)C` was above 100 nM.
Take `CC(=O)N1Cc2c(N3CCOC[C@H]3C)nc(-c3cccc4[nH]ccc34)nc2C1(C)C`: in data set [2], the Activity is recorded as below 45%. This compound also showed an IC50 in data set [1] of 2 nM.
For the compound `COc1cccc(C(=O)N2CCc3c(N4CCOC[C@H]4C)nc(-c4cccc5[nH]ccc45)nc3C23CCC3)c1`, the concentration for half-maximal inhibition (IC50) in data set [1] was above 100 nM.
With `COc1cc(C(=O)N2Cc3c(N4CCOC[C@H]4C)nc(-c4cccc5[nH]ccc45)nc3C2(C)C)cc(OC)c1OC`, it took 19 nM to reach half-maximal inhibition in [1] (IC50).
For `C[C@@H]1COCCN1c1nc(-c2cccc3[nH]ccc23)nc2c1CCN(C(=O)Cc1cccs1)C2(C)C`, in [1], the IC50 was 9 nM.
Consider `CCC(=O)N1CCc2c(N3CCOC[C@H]3C)nc(-c3cccc4[nH]ccc34)nc2C1(C)C`, for which the CLint scaled at 1 h, 1 µM in data set [5] was 178 mL/min/kg; in data set [9], 195 mL/min/kg. The microsomal CLint at 1 h, 1 µM in data set [6] is 98.8 µL/min/mg; in data set [10], 207 µL/min/mg. In addition, the half-life at 1 h, 1 µM in data set [7] turned out to be 14 min; in data set [8], 6.7 min. Moreover, the IC50 in data set [3] came out at 779 nM; in [4], 2470 nM; in data set [1], 9 nM.
In turn, `COC(=O)N1CCc2c(N3CCOC[C@H]3C)nc(-c3cccc4[nH]ccc34)nc2C1(C)C` returned an IC50 in data set [1] of 18 nM.
Still for that read-out and setting: the value for `C[C@@H]1COCCN1c1nc(-c2cccc3[nH]ccc23)nc2c1CCN(C(=O)c1cccc(C(F)(F)F)c1)C2(C)C` was 72 nM; that for `CCOC(=O)N1CCc2c(N3CCOC[C@H]3C)nc(-c3cccc4[nH]ccc34)nc2C1(C)C` was 18 nM.
As for `C[C@@H]1COCCN1c1nc(-c2cccc3[nH]ccc23)nc2c1CCN(C(=O)c1cccc(F)c1)C2(C)C`, the CLint scaled at 1 h, 1 µM in data set [5] was 107 mL/min/kg; in data set [9], 169 mL/min/kg. Also, the microsomal CLint at 1 h, 1 µM came out at 59.6 µL/min/mg in data set [6] and 179 µL/min/mg in data set [10]. Besides, the half-life at 1 h, 1 µM in data set [7] amounted to 23.4 min; in data set [8], 7.76 min. In addition, the IC50 worked out at 964 nM in [3], 2580 nM in data set [4] and 14 nM in data set [1].
In data set [1], `COc1cccc(C(=O)N2CCc3nc(-c4cccc5[nH]ccc45)nc(N4CCOC[C@H]4C)c3C2)c1` yielded a 50% inhibitory concentration (IC50) above 100 nM.
As to `CC(C)C(=O)N1CCc2c(N3CCOC[C@H]3C)nc(-c3cccc4[nH]ccc34)nc2C1(C)C`, the intrinsic clearance (CLint scaled) at 1 h, 1 µM in data set [5] worked out at 232 mL/min/kg; in [9], 466 mL/min/kg. The intrinsic clearance (microsomal CLint) at 1 h, 1 µM was 129 µL/min/mg in [6] and 493 µL/min/mg in data set [10]. Moreover, the half-life at 1 h, 1 µM in [7] was 10.9 min; in data set [8] it was 2.82 min. Further, the concentration for half-maximal inhibition (IC50) came to 1120 nM in [3], 4310 nM in data set [4] and 10 nM in data set [1].
As to `COc1ccc(C(=O)N2CCc3c(nc(-c4cccc5[nH]ccc45)nc3N3CCOC[C@H]3C)C2)cc1`, in data set [1], the 50% inhibitory concentration (IC50) was 51 nM.
`C[C@@H]1COCCN1c1nc(-c2cccc3[nH]ccc23)nc2c1CCN(C(=O)c1cccc(Cl)c1)C2(C)C` returned an IC50 in [1] of 43 nM.
Same read-out and setting: the value for `C[C@@H]1COCCN1c1nc(-c2cccc3[nH]ccc23)nc2c1CN(C(=O)c1ccc(OC(F)(F)F)cc1)C2(C)C` was 42 nM.
In the case of `C[C@@H]1COCCN1c1nc(-c2cccc3[nH]ccc23)nc2c1CCN(C(=O)c1ccccc1)C2(C)C`, the CLint scaled at 1 h, 1 µM in [5] came out at 65.5 mL/min/kg; in data set [9], 53.7 mL/min/kg. Besides, the microsomal CLint at 1 h, 1 µM in data set [6] was found to be 36.4 µL/min/mg; in data set [10], 56.8 µL/min/mg. Moreover, the values for the half-life at 1 h, 1 µM in [7] and in [8] were 38.2 min and 24.5 min, respectively. In addition, the concentration for half-maximal inhibition (IC50) in data set [3] is 574 nM; in data set [4], 1640 nM; in [1] it was 9 nM.
In data set [1], `C[C@@H]1COCCN1c1nc(-c2cccc3[nH]ccc23)nc2c1CN(C(=O)C1CC1)CC2` registered an IC50 of 111 nM.
As to `C[C@@H]1COCCN1c1nc(-c2cccc3[nH]ccc23)nc2c1CCN(C(=O)C1CC1)C2`, half-maximal inhibition in [1] (IC50) required 14 nM.
